Results reported in the supplement of paper PMC5579334.
± gives the standard deviation of the averaged measurements.

Experiments:
S462 [1] = assay: drug sensitivity score (DSS, CellTiter-Glo viability, 72 h) (DSS (dimensionless)); higher = more sensitive; extreme values may be limits of the assay
In short: (§1)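 For this screen, 384-well plates were preprinted with each compound at five concentrations in 10-fold steps and seeded with MPNST cell lines or primary human Schwann cells at 750–1000 cells per well. Incubation lasted 72 h at 37 °C, 5% CO2, and CellTiter-Glo ATP luminescence, scaled between vehicle and positive-control wells and averaged over duplicates where available, served as viability. Logistic fits with four parameters were applied. Relative IC50 (censored at the top concentration) and drug sensitivity score derive from these fits, and percent inhibition is at the top concentration.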

YST-1 [2] = assay: as above
In short: as §1

HS-PSS [3] = assay: as above
In short: as §1

S1507-2 [4] = assay: as above
In short: as §1

[5] = system: HSC2 (primary human Schwann cells); assay: as above
In short: as §1

HS-Sch-2 [6] = assay: as above
In short: as §1

ST8814 [7] = assay: as above
In short: as §1

STS26T [8] = assay: as above
In short: as §1

[9] = system: HSC1 (primary human Schwann cells); assay: as above
In short: as §1

HS-PSS [10] = assay: drug sensitivity score (DSS, CellTox-Green cytotoxicity, 72 h) (DSS (dimensionless)); higher = more cytotoxic; extreme values may be limits of the assay
In short: (§2)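 MPNST cell lines and primary human Schwann cells were grown for 72 h at 37 °C in 384-well plates containing five 10-fold compound dilutions. CellTox-Green, added before seeding at a final 1:1000 dilution, gave fluorescence from DNA released by disrupted cells, and signals were scaled to vehicle and positive-control wells. Curves were fitted with a four-parameter logistic model. Drug sensitivity score and relative IC50 come from these fits, with IC50 censored at the top concentration.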

S1507-2 [11] = assay: as above
In short: as §2

[12] = system: HSC2 (primary human Schwann cells); assay: as above
In short: as §2

ST8814 [13] = assay: as above
In short: as §2

STS26T [14] = assay: as above
In short: as §2

[15] = system: HSC1 (primary human Schwann cells); assay: as above
In short: as §2

S462 [16] = assay: % inhibition of CellTiter-Glo viability at highest tested concentration (72 h), relative to DMSO and benzethonium chloride controls; higher = more inhibition
In short: as §1

YST-1 [17] = assay: as above
In short: as §1

HS-PSS [18] = assay: as above
In short: as §1

S1507-2 [19] = assay: as above
In short: as §1

[20] = system: HSC2 (primary human Schwann cells); assay: as above
In short: as §1

HS-Sch-2 [21] = assay: as above
In short: as §1

ST8814 [22] = assay: as above
In short: as §1

STS26T [23] = assay: as above
In short: as §1

[24] = system: HSC1 (primary human Schwann cells); assay: as above
In short: as §1

SMILES	drug sensitivity score (S462 [1])	drug sensitivity score (YST-1 [2])	drug sensitivity score (HS-PSS [3])	drug sensitivity score (S1507-2 [4])	drug sensitivity score [5]	drug sensitivity score (HS-Sch-2 [6])	drug sensitivity score (ST8814 [7])	drug sensitivity score (STS26T [8])	drug sensitivity score [9]	drug sensitivity score (HS-PSS [10])	drug sensitivity score (S1507-2 [11])	drug sensitivity score [12]	drug sensitivity score (ST8814 [13])	drug sensitivity score (STS26T [14])	drug sensitivity score [15]	% inhibition (S462 [16])	% inhibition (YST-1 [17])	% inhibition (HS-PSS [18])	% inhibition (S1507-2 [19])	% inhibition [20]	% inhibition (HS-Sch-2 [21])	% inhibition (ST8814 [22])	% inhibition (STS26T [23])	% inhibition [24]
CC[C@H](Nc1ncnc2[nH]cnc12)c1nc2cccc(F)c2c(=O)n1-c1ccccc1 [Idelalisib] (max concentration tested 10000 nM)	0	5.3	0	7.05 ± 0.49	0	0	0.546	4.47	0	0	0	2.82	0	2.81	0	19.1 ± 8.8%	46.5%	2.74%	35.2 ± 8.5%	9.86%	3.62%	21.2%	49.3%	14.6%
Cn1cncc1[C@@](N)(c1ccc(Cl)cc1)c1ccc2c(c1)c(-c1cccc(Cl)c1)cc(=O)n2C [Tipifarnib] (max concentration tested 10000 nM)	10.58 ± 0.032	13.9	5.39	14.3 ± 0.82	8.8	7.08	8.98	14	6.55	0	0	0	0	9.1	0.209	75.3 ± 2%	73.1%	46.5%	64.095 ± 0.013%	66.7%	78%	59.9%	87.3%	69.7%
CNC(=O)c1cccc(-c2ccc3c(N4CCOC[C@@H]4C)nc(N4CCOC[C@@H]4C)nc3n2)c1 [AZD2014] (max concentration tested 10000 nM)	11.1 ± 0.51	17.9	10.4	12.6 ± 1	15	11.7	10.7	12	15.2	0	0	0	0	0	0	66.2 ± 1.5%	79.2%	69.8%	75.49 ± 0.4%	87.1%	71%	78.5%	75.4%	87.4%
O=C(c1ccc(C(=O)N2CCC(N3CCCC3)CC2)c(Nc2ccccc2)c1)N1CCC(N2CCCC2)CC1 [UNC1215] (max concentration tested 30000 nM)	0	0	0.73	0	0	0.38	0.198	0	0	0	0	0	0	0	0	2.34 ± 0.36%	-5.53%	20.4%	5.34 ± 1.7%	5.83%	15.2%	13.9%	3.37%	8.9%
O=C(CCCCCCC(=O)Nc1ccccc1)NO [Vorinostat] (max concentration tested 10000 nM)	7.84 ± 1.1	13	4.89	9.06 ± 1.5	8.25	8.6	8.9	6.18	9.34	2.31	7.03 ± 1.4	4.21	5.36	3.21	2.83	101.1 ± 0.69%	100%	79.2%	103.1 ± 0.86%	88.6%	99.6%	101%	83.9%	90.6%
CN[C@@H]1C[C@H]2O[C@@](C)([C@@H]1OC)n1c3ccccc3c3c4c(c5c6ccccc6n2c5c31)C(=O)N[C@H]4O [UCN-01] (max concentration tested 10000 nM)	31.03 ± 0.038	21.8	22.1	32.23 ± 0.17	30.9	26.7	27.3	27.9	27.8	6.62	15.35 ± 0.12	21.7	13.8	29.4	15.9	105.6 ± 0.5%	89.8%	100%	105 ± 1.4%	103%	102%	105%	104%	102%
Nc1cccc2c1C(=O)N(C1CCC(=O)NC1=O)C2=O (stereo unspecified) [Pomalidomide] (max concentration tested 10000 nM)	0.575 ± 0.81	0	0	0	0	0	0	0	0	0	0.571 ± 0.72	0	0	0	0	8.99 ± 10%	-0.59%	-13.4%	-0.849 ± 0.56%	-10.6%	-6.26%	8.53%	2.08%	8.79%
N#Cc1ccc(COC[C@H]2O[C@@H](n3c(NCc4ccc(Cl)c(Cl)c4)nc4c(N)ncnc43)[C@H](O)[C@@H]2O)cc1 (max concentration tested 10000 nM)	0.314 ± 0.44	2.63	0.47	0	8	0	0	3.06	5.32	0	0	0	0	0.0103	0	11.3 ± 7.2%	28.8%	21.7%	7.48 ± 0.46%	44.2%	9.8%	8.16%	30.7%	41.6%
CNNCc1ccc(C(=O)NC(C)C)cc1 [Procarbazine] (max concentration tested 10000 nM)	0	0	0	0	0	0	0	0	0	0	0.135 ± 0.19	0	0	0	0	-14.6 ± 3.4%	3.64%	4.68%	-0.333 ± 1.2%	3.15%	-5.24%	1.52%	4.63%	4.32%
COc1ccccc1S(=O)(=O)Nc1ccc2c(c1)CN(C)C(=O)N2 [PFI-1] (max concentration tested 10000 nM)	4.68 ± 0.9	4.93	2.11	6.21 ± 0.6	4.03	5.21	5.94	3.53	3.78	0	2.07 ± 1.1	0	1.77	0	0	53.6 ± 4.7%	56.6%	48.1%	69.2 ± 3.9%	53.7%	58.4%	63.6%	39.5%	62.2%
O=c1[nH]c(=O)n([C@H]2C[C@H](O)[C@@H](CO)O2)cc1F [Floxuridine] (max concentration tested 10000 nM)	22.4 ± 2.9	14.7	2.58	5.09 ± 3.2	10.6	17.9	12.5	21.5	6.07	0	0	0.287	2.95	7.21	1.27	84.1 ± 3.6%	68.3%	30.7%	31.3 ± 10%	53.8%	84.7%	57.8%	77.3%	53.1%
CCn1c(-c2nonc2N)nc2cnc(Oc3cccc(NC(=O)c4ccc(OCCN5CCOCC5)cc4)c3)cc21 (max concentration tested 10000 nM)	3.9 ± 0.086	6.84	4.2	3.11 ± 0.81	18.1	6.03	2.57	5.65	16.9	0	2.06 ± 2.4	0.268	0	5.6	1.62	43.6 ± 3.2%	49.8%	47.1%	36.1 ± 2.2%	71.3%	58%	34.9%	50.7%	70.6%
Cn1c(Nc2ccc(C(F)(F)F)cc2)nc2cc(Oc3ccnc(-c4ncc(C(F)(F)F)[nH]4)c3)ccc21 [RAF265] (max concentration tested 1000 nM)	5.79 ± 0.67	2.73	4.44	4.23 ± 0.6	14.4	1.56	3.46	3.93	11.2	0	0	0	0	0	0	51.9 ± 1.2%	30.2%	52.2%	43.6 ± 6%	68.9%	22.3%	33.1%	40.9%	70.8%
O=C(NC[C@H](O)CO)c1ccncc1Nc1ccc(I)cc1F [Pimasertib] (max concentration tested 10000 nM)	11.9 ± 0.82	1.29	2.94	11.9 ± 1.4	7.43	5.83	10.8	6.72	7.67	0	5.35 ± 0.4	0	6.32	0.309	0.153	83.69 ± 0.41%	34.4%	44.3%	81.8 ± 2.4%	65%	55.4%	95.9%	42%	60.7%
